Experimental findings from ChEMBL document CHEMBL1152289, “Antithyroid drug carbimazole and its analogues: synthesis and inhibition of peroxidase-catalyzed iodination of L-tyrosine” (J Med Chem, 2008) are described below.

Lactoperoxidase, sequence (P22079 whole entry): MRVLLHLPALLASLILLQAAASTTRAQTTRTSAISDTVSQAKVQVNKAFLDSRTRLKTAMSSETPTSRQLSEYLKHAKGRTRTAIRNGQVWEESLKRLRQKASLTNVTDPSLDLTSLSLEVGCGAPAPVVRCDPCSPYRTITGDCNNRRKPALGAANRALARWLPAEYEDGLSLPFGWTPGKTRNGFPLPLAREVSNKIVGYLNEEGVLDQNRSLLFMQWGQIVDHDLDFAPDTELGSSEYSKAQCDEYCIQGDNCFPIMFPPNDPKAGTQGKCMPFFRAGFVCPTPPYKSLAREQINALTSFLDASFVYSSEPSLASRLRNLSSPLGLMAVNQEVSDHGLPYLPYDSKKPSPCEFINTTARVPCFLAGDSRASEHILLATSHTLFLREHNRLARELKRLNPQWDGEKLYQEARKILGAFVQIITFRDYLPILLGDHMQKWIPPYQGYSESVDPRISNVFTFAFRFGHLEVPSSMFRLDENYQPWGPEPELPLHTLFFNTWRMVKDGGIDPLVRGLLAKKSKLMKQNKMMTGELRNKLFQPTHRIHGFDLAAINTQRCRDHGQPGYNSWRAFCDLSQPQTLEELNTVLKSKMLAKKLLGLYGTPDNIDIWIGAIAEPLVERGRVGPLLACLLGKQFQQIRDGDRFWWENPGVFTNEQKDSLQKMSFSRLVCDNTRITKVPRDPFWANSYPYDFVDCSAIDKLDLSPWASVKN

The test concerns the target Lactoperoxidase (Homo sapiens, UniProt P22079). Briefly: Inhibition of lactoperoxidase-catalyzed iodination of L-tyrosine assessed as 3,5-diiodo-L-tyrosine formation by HPLC.
Regarding `COC(=O)n1ccn(C)c1=S`, the IC50 was found to be 10.7 µM.
The value for `CCOC(=O)n1ccn(CC)c1=[Se]` was 21.3 µM; that for `CCOC(=O)n1ccn(C)c1=[Se]` was 10.1 µM; that for `CCn1ccn(C(=O)OC)c1=[Se]` was 25.3 µM.
Turning to `CCOC(=O)n1ccn(CC)c1=S`, the IC50 worked out at 20.5 µM.
Take `CCn1ccn(C(=O)OC)c1=S`: the IC50 was found to be 19.6 µM.
As for `COC(=O)n1ccn(C)c1=[Se]`, the IC50 was determined as 19.7 µM.
For `CCOC(=O)n1ccn(C)c1=S` [CARBIMAZOLE] the value was 10.4 µM; for `Cn1cc[nH]c1=S` [METHIMAZOLE], 11.8 µM.

A word on the IC50: it is the concentration that inhibits the measured activity by half.
